The record followed here is US12421229B2, “Hydropyrido[1,2-α]pyrazine compounds for the treatment of autoimmune disease” (Hoffmann-La Roche Inc., priority 2019, dated 2025).

The assay deals with T1, human TLR8 (Homo sapiens, UniProt Q9NR97).
T1 construct: host or cells: HEK293 (HEK-Blue hTLR8)
T1 sequence (Q9NR97 27-1041): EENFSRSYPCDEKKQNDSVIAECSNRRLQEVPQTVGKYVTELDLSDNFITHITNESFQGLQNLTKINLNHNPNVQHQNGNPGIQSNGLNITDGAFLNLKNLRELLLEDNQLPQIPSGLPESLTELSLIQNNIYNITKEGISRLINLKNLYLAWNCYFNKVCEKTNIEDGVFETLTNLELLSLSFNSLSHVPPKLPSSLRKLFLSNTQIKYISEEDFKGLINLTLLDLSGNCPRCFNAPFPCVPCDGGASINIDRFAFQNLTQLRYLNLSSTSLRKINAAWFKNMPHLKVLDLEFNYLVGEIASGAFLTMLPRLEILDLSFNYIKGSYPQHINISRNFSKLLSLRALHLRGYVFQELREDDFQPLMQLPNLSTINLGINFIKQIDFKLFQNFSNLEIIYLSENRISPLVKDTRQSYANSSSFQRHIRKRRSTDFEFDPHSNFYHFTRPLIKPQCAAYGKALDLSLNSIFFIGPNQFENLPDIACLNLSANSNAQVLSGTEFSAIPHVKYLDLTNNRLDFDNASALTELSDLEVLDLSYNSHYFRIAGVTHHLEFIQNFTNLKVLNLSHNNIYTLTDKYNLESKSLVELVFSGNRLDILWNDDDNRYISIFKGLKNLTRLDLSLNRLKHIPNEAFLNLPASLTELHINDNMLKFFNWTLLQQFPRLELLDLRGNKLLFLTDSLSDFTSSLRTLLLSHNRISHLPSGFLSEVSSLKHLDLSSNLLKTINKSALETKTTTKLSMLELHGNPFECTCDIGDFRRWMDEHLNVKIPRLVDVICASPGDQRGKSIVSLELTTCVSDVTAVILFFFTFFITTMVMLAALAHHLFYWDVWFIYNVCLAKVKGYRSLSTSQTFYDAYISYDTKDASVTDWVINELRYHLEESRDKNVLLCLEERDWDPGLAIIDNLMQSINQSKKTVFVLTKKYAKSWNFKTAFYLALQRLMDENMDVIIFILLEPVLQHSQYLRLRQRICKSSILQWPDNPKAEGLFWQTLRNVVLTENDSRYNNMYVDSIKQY
Put plainly: HEK293-Blue-hTLR-8 cells assay. Format: cell-based. The note with it: HEK293-Blue-hTLR8 cells, R848 stimulation, 20 hrs, SEAP reporter; read-out: HEK/hTLR8 IC50. The text has this: A stable HEK293-Blue-hTLR-8 cell line was purchased from InvivoGen (Cat. #: hkb-htlr8, San Diego, California, USA). These cells were originally designed for studying the stimulation of human TLR8 by monitoring the activation of NF-κB. A SEAP (secreted embryonic alkaline phosphatase) reporter gene was placed under the control of the IFN-β minimal promoter fused to five NF-κB and AP-1-binding sites. The SEAP was induced by activating NF-κB and AP-1 via stimulating HEK-Blue hTLR8 cells with TLR8 ligands. Therefore the reporter expression was declined by TLR8 antagonist under the stimulation of a ligand, such as R848, for incubation of 20 hrs. The cell culture supernatant SEAP reporter activity was determined using QUANTI-Blue™ kit (Cat. #: rep-qb1, Invivogen, San Diego, Ca, USA) at a wavelength of 640 nm, a detection medium that turns purple or blue in the presence of alkaline phosphatase.
HEK293-Blue-hTLR8 cells were incubated at a density of 250,000˜450,000 cells/mL in a volume of 170 μL in a 96-well plate in Dulbecco's Modified Eagle's medium (DMEM) containing 4.5 g/L glucose, 50 U/mL penicillin, […], […], 2 mM L-glutamine, 10% (v/v) heat-inactivated fetal bovine serum with addition of 20 μL test compound in a serial dilution in the presence of final DMSO at 1% and 10 μL of 60 uM R848 in above DMEM, perform incubation under 37° C. in a CO2 incubator for 20 hrs. Then 20 μL of the supernatant from each well was incubated with 180 μL Quanti-blue substrate solution at 37° C. for 2 hrs and the absorbance was read at 620˜655 nm using a spectrophotometer. The signaling pathway that TLR8 activation leads to downstream NF-κB activation has been widely accepted, and therefore similar reporter assay was modified for evaluating TLR8 antagonist.

pIC50: −log10 of the molar value.

`C[C@@H]1CN(c2ccc(C#N)c3ncccc23)C[C@@H]2C[C@H](c3ccc(N4CCNCC4)nc3)CCN21` (stereo in doubt) [Example 2, 5-[(4R,8R)-4-methyl-8-(6-piperazin-1-yl-3-pyridyl)-1,3,4,6,7,8,9,9a-octahydropyrido[1,2-a]pyrazin-2-yl]quinoline-8-carbonitrile]: the pIC50 is 7.72. With `C[C@@H]1CN(c2ccc(C#N)c3ncccc23)C[C@@H]2CC(c3ccc(C[C@@H]4CNCCO4)cc3)CCN21` (stereo in doubt) [Example 25, 5-[(4R,8R,9aS)-4-methyl-8-[4-[[(2R)-morpholin-2-yl]methyl]phenyl]-1,3,4,6,7,8,9,9a-octahydropyrido[1,2-a]pyrazin-2-yl]quinoline-8-carbonitrile], the pIC50 is 7.52. Then `C[C@@H]1CN(c2ccc(C#N)c3ncccc23)C[C@@H]2C[C@H](NCc3ccc(N4CCNCC4)cc3)CCN21` [Example 1, 5-[(4R,8R,9aS)-4-methyl-8-[(4-piperazin-1-ylphenyl)methylamino]-1,3,4,6,7,8,9,9a-octahydropyrido[1,2-a]pyrazin-2-yl]quinoline-8-carbonitrile], with 7.17; and `C[C@@H]1CN(c2ccc(C#N)c3ncccc23)CC2C[C@H](c3ccc(N4CCNCC4)cc3)CCN21` (stereo partly drawn) [Example 3, 5-[(4R,8R)-4-methyl-8-(4-piperazin-1-ylphenyl)-1,3,4,6,7,8,9,9a-octahydropyrido[1,2-a]pyrazin-2-yl]quinoline-8-carbonitrile], with 7.64; and `C[C@@H]1CN(c2ccc(C#N)c3ncccc23)C[C@@H]2C[C@H](c3ccc(N4CCNCC4)nc3)CCN21` [Example 4, 5-[(4R,8R,9aS)-4-methyl-8-(6-piperazin-1-yl-3-pyridyl)-1,3,4,6,7,8,9,9a-octahydropyrido[1,2-a]pyrazin-2-yl]quinoline-8-carbonitrile], with 7.74. Then `CO[C@H]1CN(c2ccc([C@@H]3CCN4[C@@H](C3)CN(c3ccc(C#N)c5ncccc35)C[C@H]4C)cn2)C[C@@H]1N` [Example 6, 5-[(4R,8R,9aS)-8-[6-[(3S,4S)-3-amino-4-methoxy-pyrrolidin-1-yl]-3-pyridyl]-4-methyl-1,3,4,6,7,8,9,9a-octahydropyrido[1,2-a]pyrazin-2-yl]quinoline-8-carbonitrile], with 7.33; and `C[C@@H]1CN(c2ccc(C#N)c3ncccc23)C[C@@H]2C[C@H](c3ccc(N4CC(N)C4)nc3)CCN21` [Example 7, 5-[(4R,8R,9aS)-8-[6-(3-aminoazetidin-1-yl)-3-pyridyl]-4-methyl-1,3,4,6,7,8,9,9a-octahydropyrido[1,2-a]pyrazin-2-yl]quinoline-8-carbonitrile], with 6.90; and `C[C@@H]1CN(c2ccc(C#N)c3ncccc23)C[C@@H]2C[C@H](N3CC(c4ccc(N5CCNCC5)cc4)C3)CCN21` [Example 9, 5-[(4R,8R,9aS)-4-methyl-8-[3-(4-piperazin-1-ylphenyl)azetidin-1-yl]-1,3,4,6,7,8,9,9a-octahydropyrido[1,2-a]pyrazin-2-yl]quinoline-8-carbonitrile], with 7.44. As for `C[C@@H]1CN(c2ccc(C#N)c3ncccc23)C[C@@H]2C[C@@H](Oc3ccc(N4CCNCC4)cn3)CCN21` [Example 11, 5-[(4R,8S,9aS)-4-methyl-8-[(5-piperazin-1-yl-2-pyridyl)oxy]-1,3,4,6,7,8,9,9a-octahydropyrido[1,2-a]pyrazin-2-yl]quinoline-8-carbonitrile], the pIC50 was 7.82.

Take `CO[C@H]1CN(c2ccc([C@@H]3CCN4[C@@H](C3)CN(c3ccc(C#N)c5ncccc35)C[C@H]4C)cn2)C[C@H]1N` [Example 12, 5-[(4R,8R,9aS)-8-[6-[(3R,4S)-3-amino-4-methoxy-pyrrolidin-1-yl]-3-pyridyl]-4-methyl-1,3,4,6,7,8,9,9a-octahydropyrido[1,2-a]pyrazin-2-yl]quinoline-8-carbonitrile]: the pIC50 was 7.35. Regarding `CO[C@@H]1CN(c2ccc([C@@H]3CCN4[C@@H](C3)CN(c3ccc(C#N)c5ncccc35)C[C@H]4C)cn2)C[C@@H]1N` [Example 13, 5-[(4R,8R,9aS)-8-[6-[(3S,4R)-3-amino-4-methoxy-pyrrolidin-1-yl]-3-pyridyl]-4-methyl-1,3,4,6,7,8,9,9a-octahydropyrido[1,2-a]pyrazin-2-yl]quinoline-8-carbonitrile], the pIC50 was 7.34.

For the molecule `CO[C@@H]1CN(c2ccc([C@@H]3CCN4[C@@H](C3)CN(c3ccc(C#N)c5ncccc35)C[C@H]4C)cn2)C[C@H]1N` [Example 14, 5-[(4R,8R,9aS)-8-[6-[(3R,4R)-3-amino-4-methoxy-pyrrolidin-1-yl]-3-pyridyl]-4-methyl-1,3,4,6,7,8,9,9a-octahydropyrido[1,2-a]pyrazin-2-yl]quinoline-8-carbonitrile], the pIC50 was 7.32. For the molecule `C[C@@H]1CN(c2ccc(C#N)c3ncccc23)C[C@H]2C[C@H](c3ccc(N4CCNCC4)nc3)CCN21` [Example 15, 5-[(4R,8R,9aR)-4-methyl-8-(6-piperazin-1-yl-3-pyridyl)-1,3,4,6,7,8,9,9a-octahydropyrido[1,2-a]pyrazin-2-yl]quinoline-8-carbonitrile], the pIC50 was 7.10. Next, `C[C@@H]1CN(c2ccc(C#N)c3ncccc23)C[C@@H]2C[C@@H](Oc3ccc(N4CCNCC4)nc3)CCN21` [Example 16, 5-[(4R,8S,9aS)-4-methyl-8-[(6-piperazin-1-yl-3-pyridyl)oxy]-1,3,4,6,7,8,9,9a-octahydropyrido[1,2-a]pyrazin-2-yl]quinoline-8-carbonitrile]: 8.10; `C[C@@H]1CN(c2ccc(C#N)c3ncccc23)C[C@@H]2C[C@@H](NCc3ccc(N4CCNCC4)cc3)CCN21` [Example 17, 5-[(4R,8S,9aS)-4-methyl-8-[(4-piperazin-1-ylphenyl)methylamino]-1,3,4,6,7,8,9,9a-octahydropyrido[1,2-a]pyrazin-2-yl]quinoline-8-carbonitrile]: 7.27; `C[C@@H]1CN(c2ccc(C#N)c3ncccc23)C[C@@H]2C[C@@H](Oc3cnc(N4CCNCC4)nc3)CCN21` [Example 18, 5-[(4R,8S,9aS)-4-methyl-8-(2-piperazin-1-ylpyrimidin-5-yl)oxy-1,3,4,6,7,8,9,9a-octahydropyrido[1,2-a]pyrazin-2-yl]quinoline-8-carbonitrile]: 8.22. For `C[C@@H]1CN(c2ccc(C#N)c3ncccc23)C[C@@H]2C[C@H](c3ccc(N4C[C@@H](N)[C@@H](F)C4)nc3)CCN21` [Example 19, 5-[(4R,8R,9aS)-8-[6-[(3R,4S)-3-amino-4-fluoro-pyrrolidin-1-yl]-3-pyridyl]-4-methyl-1,3,4,6,7,8,9,9a-octahydropyrido[1,2-a]pyrazin-2-yl]quinoline-8-carbonitrile], the pIC50 is 7.20. Next, `C[C@@H]1CN(c2ccc(C#N)c3ncccc23)C[C@@H]2C[C@H](Nc3ccc([C@H]4CNCCO4)cc3)CCN21` [Example 20, 5-[(4R,8R,9aS)-4-methyl-8-[4-[(2S)-morpholin-2-yl]anilino]-1,3,4,6,7,8,9,9a-octahydropyrido[1,2-a]pyrazin-2-yl]quinoline-8-carbonitrile]: 7.30.
